Laboratory results published in ChEMBL document CHEMBL1201862, “PubChem BioAssay data set” (2004).
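Five compound concentrations were applied to cells in 96-well plates for 48 hours; endpoints were derived by simple linear interpolation of the resulting dose-response curve. Abbreviation: GI50, concentration required for 50% inhibition of growth.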 Active and inactive are the calls of the source. Rule as the data show it: active = GI50 up to about 1.1 µM and inactive = higher.

Columns and labels:
Experiment in all cases: DTP human tumour cell line panel, 48 h
A498 = test system: A498
A549 = test system: A549
CCRF-CEM = test system: CCRF-CEM
HCT-116 = test system: HCT-116
HL-60 = test system: HL-60
IGROV-1 = test system: IGROV-1
KM12 = test system: KM12
LOX IMVI = test system: LOX IMVI
Malme-3M = test system: Malme-3M
NCI-H460 = test system: NCI-H460
OVCAR-3 = test system: OVCAR-3
OVCAR-5 = test system: OVCAR-5
SF-295 = test system: SF-295
SK-OV-3 = test system: SK-OV-3
SN12C = test system: SN12C
SNB-19 = test system: SNB-19
SW-620 = test system: SW-620
TK-10 = test system: TK-10
U-251 = test system: U-251
OVCAR-4 = test system: OVCAR-4

Measured: GI50

O=C(O)C(SC(=S)c1ccc(C(=S)SC(C(=O)O)c2ccccc2)cc1)c1ccccc1 (stereo not drawn)
inactive: A498 69.8 µM | A549 > 100 µM | CCRF-CEM > 100 µM | HCT-116 > 100 µM | HL-60 > 100 µM | IGROV-1 > 100 µM | KM12 > 100 µM | LOX IMVI 50.6 µM | Malme-3M > 100 µM | NCI-H460 > 100 µM | OVCAR-3 56.5 µM | OVCAR-5 > 100 µM | SF-295 > 100 µM | SK-OV-3 > 100 µM | SN12C > 100 µM | SNB-19 46.6 µM | SW-620 > 100 µM | TK-10 > 100 µM | U-251 > 100 µM

Nc1ccc(S(=O)(=O)c2ccc(NCN3C(=O)NC(=O)C(=O)C3=O)cc2)cc1 [ALLANTODAPSONE]
inactive: A498 > 100 µM | A549 > 100 µM | CCRF-CEM 95.7 µM | HCT-116 > 100 µM | IGROV-1 > 100 µM | KM12 > 100 µM | LOX IMVI > 100 µM | Malme-3M > 100 µM | NCI-H460 > 100 µM | OVCAR-3 > 100 µM | OVCAR-4 > 100 µM | OVCAR-5 > 100 µM | SF-295 > 100 µM | SN12C > 100 µM | SNB-19 > 100 µM | SW-620 > 100 µM | TK-10 > 100 µM | U-251 > 100 µM

CC(Cc1ccccc1)NC1=NCCO1 (stereo not drawn)
inactive: A498 29.8 µM | A549 38.8 µM | HCT-116 18 µM | IGROV-1 36 µM | LOX IMVI 18.2 µM | NCI-H460 17.9 µM | OVCAR-4 36.2 µM | OVCAR-5 > 100 µM | SF-295 > 100 µM | SK-OV-3 > 100 µM | SN12C 21.8 µM | SNB-19 35.6 µM | SW-620 34.3 µM | U-251 25.1 µM

N#CC1(C#N)C(c2ccccc2)NC23CCCCC2C1(C#N)C(=O)N3 (stereo not drawn)
inactive: A498 > 100 µM | A549 > 100 µM | CCRF-CEM 51.6 µM | HCT-116 > 100 µM | IGROV-1 > 100 µM | KM12 > 100 µM | Malme-3M > 100 µM | NCI-H460 > 100 µM | OVCAR-3 > 100 µM | OVCAR-4 > 100 µM | OVCAR-5 > 100 µM | SF-295 > 100 µM | SK-OV-3 > 100 µM | SN12C > 100 µM | SNB-19 > 100 µM | SW-620 > 100 µM | U-251 > 100 µM

CN(N=O)c1nc2c(C(N)=O)ncn2s1
inactive: A498 > 100 µM | A549 > 100 µM | CCRF-CEM 45.4 µM | HCT-116 53 µM | IGROV-1 63.1 µM | KM12 > 100 µM | LOX IMVI 15.2 µM | Malme-3M 85.7 µM | NCI-H460 52.1 µM | OVCAR-3 87.1 µM | OVCAR-4 47.9 µM | OVCAR-5 > 100 µM | SF-295 68.2 µM | SK-OV-3 48.6 µM | SN12C 97.7 µM | SNB-19 > 100 µM | SW-620 46.9 µM | TK-10 20 µM | U-251 > 100 µM

CSc1nc2c(nc(N)n2C2OCC(O)C(O)C2O)c(=O)[nH]1 (stereo not drawn)
inactive: A498 > 100 µM | A549 > 100 µM | CCRF-CEM > 100 µM | HCT-116 > 100 µM | HL-60 > 100 µM | IGROV-1 > 100 µM | KM12 > 100 µM | LOX IMVI > 100 µM | Malme-3M > 100 µM | NCI-H460 > 100 µM | OVCAR-3 > 100 µM | OVCAR-4 > 100 µM | SF-295 > 100 µM | SK-OV-3 > 100 µM | SN12C > 100 µM | SNB-19 > 100 µM | SW-620 > 100 µM | TK-10 > 100 µM | U-251 > 100 µM

c1ccc(COc2cccc3ccc[n+](Cc4ccccc4)c23)cc1
inactive: A498 16.6 µM | A549 7.46 µM | CCRF-CEM 6.04 µM | HL-60 1.93 µM | IGROV-1 3.03 µM | KM12 3.41 µM | Malme-3M 4.23 µM | NCI-H460 8.93 µM | OVCAR-4 3.6 µM | OVCAR-5 1.92 µM | SF-295 4.26 µM | SK-OV-3 23.8 µM | SNB-19 3.52 µM | SW-620 9.75 µM | TK-10 12.1 µM | U-251 4.01 µM

CCc1ccc2nc(-c3ccc(O)cc3)sc2c1
inactive: A498 18 µM | A549 17.9 µM | HCT-116 16.7 µM | HL-60 2.96 µM | IGROV-1 14 µM | KM12 14.3 µM | LOX IMVI 16.3 µM | Malme-3M 17.3 µM | NCI-H460 21.1 µM | OVCAR-3 13.6 µM | OVCAR-5 15.3 µM | SF-295 16.8 µM | SK-OV-3 16.7 µM | SN12C 14.6 µM | SNB-19 14.7 µM | SW-620 20.6 µM | TK-10 17.9 µM | U-251 17.7 µM

O=C(O)C1CC2C=CCC(C2)C1 (stereo not drawn)
inactive: A549 > 100 µM | CCRF-CEM > 100 µM | HCT-116 > 100 µM | HL-60 > 100 µM | IGROV-1 > 100 µM | KM12 > 100 µM | LOX IMVI > 100 µM | Malme-3M > 100 µM | NCI-H460 > 100 µM | OVCAR-3 > 100 µM | OVCAR-4 > 100 µM | OVCAR-5 > 100 µM | SF-295 > 100 µM | SK-OV-3 > 100 µM | SNB-19 > 100 µM | SW-620 > 100 µM | TK-10 > 100 µM | U-251 > 100 µM

CC(C)OP(=O)(OC(C)C)/C(F)=N/Nc1ccc([N+](=O)[O-])cc1
inactive: A498 > 100 µM | A549 > 100 µM | CCRF-CEM > 100 µM | HCT-116 > 100 µM | HL-60 > 100 µM | IGROV-1 > 100 µM | KM12 91.2 µM | Malme-3M > 100 µM | NCI-H460 > 100 µM | OVCAR-3 > 100 µM | OVCAR-4 > 100 µM | OVCAR-5 > 100 µM | SF-295 > 100 µM | SK-OV-3 > 100 µM | SN12C > 100 µM | SNB-19 > 100 µM | SW-620 > 100 µM | TK-10 > 100 µM | U-251 > 100 µM

COc1ccc(C[C@H]2COC(=O)[C@@H]2Cc2cccc(Br)c2)cc1OC
inactive: A549 32.9 µM | CCRF-CEM 5.11 µM | HCT-116 12.8 µM | HL-60 12.2 µM | IGROV-1 31.6 µM | KM12 18.8 µM | LOX IMVI 3.85 µM | Malme-3M 21.2 µM | NCI-H460 26.2 µM | OVCAR-3 20 µM | OVCAR-4 10.4 µM | OVCAR-5 33.1 µM | SF-295 32.7 µM | SK-OV-3 26.6 µM | SN12C 27.5 µM | SNB-19 52 µM | SW-620 22.5 µM | TK-10 30.4 µM | U-251 26.4 µM

C[Si](C)(N[Si](C)(C)OCCc1ccccc1)OCCc1ccccc1
inactive: A498 > 100 µM | CCRF-CEM > 100 µM | HCT-116 > 100 µM | HL-60 > 100 µM | IGROV-1 > 100 µM | KM12 > 100 µM | LOX IMVI > 100 µM | NCI-H460 > 100 µM | OVCAR-3 > 100 µM | OVCAR-4 > 100 µM | OVCAR-5 > 100 µM | SF-295 > 100 µM | SK-OV-3 > 100 µM | SN12C > 100 µM | SNB-19 > 100 µM | SW-620 > 100 µM | TK-10 > 100 µM | U-251 > 100 µM

O=C1CC(=O)NC(NN2C(=O)/C(=C/c3ccc(Cl)c(Cl)c3)N=C2c2ccccc2)=N1
inactive: A498 23.4 µM | A549 27.2 µM | CCRF-CEM 11.9 µM | HCT-116 17.7 µM | IGROV-1 31.1 µM | KM12 16.4 µM | Malme-3M 34.8 µM | NCI-H460 15.7 µM | OVCAR-3 19.1 µM | OVCAR-4 49.3 µM | OVCAR-5 46.7 µM | SF-295 32 µM | SK-OV-3 46.8 µM | SN12C 17.3 µM | SW-620 30.4 µM | TK-10 41.9 µM | U-251 23.9 µM

CC(=O)c1ccc(NC(=O)/C(CC(=O)/C=C/c2ccccc2)=N/NC(N)=S)cc1
inactive: A498 > 100 µM | A549 > 100 µM | HCT-116 > 100 µM | HL-60 80.7 µM | IGROV-1 53.1 µM | KM12 44.4 µM | LOX IMVI > 100 µM | Malme-3M > 100 µM | NCI-H460 68.4 µM | OVCAR-3 > 100 µM | OVCAR-4 49.5 µM | OVCAR-5 > 100 µM | SF-295 > 100 µM | SK-OV-3 > 100 µM | SN12C > 100 µM | SW-620 > 100 µM | TK-10 > 100 µM | U-251 > 100 µM

C1=CCN(c2ccccc2)CC1
inactive: A498 > 100 µM | A549 > 100 µM | CCRF-CEM 6.38 µM | HCT-116 29.6 µM | HL-60 11.9 µM | IGROV-1 29.9 µM | KM12 64.9 µM | LOX IMVI 43.9 µM | Malme-3M 22.6 µM | NCI-H460 > 100 µM | OVCAR-3 25.4 µM | OVCAR-5 > 100 µM | SF-295 > 100 µM | SK-OV-3 > 100 µM | SN12C 26.3 µM | SNB-19 > 100 µM | SW-620 16.3 µM | TK-10 40 µM | U-251 > 100 µM
